{"source": "paper PMC12444508", "about": "“Mechanistic Insights into the Anticancer Action of Novel 2‑Hydroxy-1,4-naphthoquinone Thiol Derivatives” (ACS Omega, 2025)", "system": "OSCC cell lines (SCC-4, SCC-9, and SCC-25)", "experiment": "Average selectivity index over three OSCC cell lines (MTT)", "assay_type": "cell-based, human", "conditions": "average of SI for SCC-4, SCC-9 and SCC-25 vs normal oral fibroblasts", "protocol": "Human SCC-4, SCC-9, and SCC-25 cells, derived from a human oral tongue SCC (squamous cell carcinoma), were obtained from ATCC (CRL-1624, CRL-1629, and CRL-1628, respectively) and maintained in 1:1 DMEM/F12 (Dulbecco’s modified Eagle’s medium and Ham’s F12 medium; Gibco (Thermo Fisher, Waltham, MA, USA)) supplemented with 10% (v/v) FBS (fetal bovine serum; Invitrogen, Thermo Fisher, Waltham, MA, USA) and 400 ng/mL hydrocortisone (Sigma-Aldrich Corporation, St. Louis, MO, USA). B16-F10 (melanoma; CRL-6475), HCT-116 (colorectal cancer; CCL-247), and HepG2 (liver cancer; HB-8065), in addition to primary normal human gingival fibroblasts obtained from ATCC (PCS-201-018), were maintained in DMEM supplemented with 10% (v/v) of FBS and were used in a maximum of six passages. Cells were grown in a humidified environment containing 5% CO2 at 37 °C. For all biological assays, compounds and shikonin were solubilized in 100% DMSO (all Sigma-Aldrich Corp.) to a final concentration of 10 mM and lapachol in ethanol. The carboplatin control was prepared in water (Fauldcarbo; Libbs Farmacêutica, São Paulo, SP, Brazil) and was used as a standard anticancer compound.\nThe viability of OSCC cell lines and primary human fibroblast cells was assessed using the MTT assay as in ref . Briefly, cells were grown in triplicate in 96-well plates (5 × 10^3 cells/well) until confluence. Then, the medium was removed, fresh medium was added, and the cells were returned to the incubator in the presence of different compounds. DMSO at the same concentration was used as a control for 100% cell viability. After 72 h, cells were incubated with 0.5 mg/mL of MTT reagent (3-(4,5-dimethyl-2-thiazolyl)-2,5-diphenyl-2-H-tetrazolium bromide) (Sigma-Aldrich Corporation, Louis, MO, USA) for 3.5 h. Then, the wells containing the cells were washed with PBS heated to 37 °C, the formazan crystals were dissolved in a solvent solution (DMSO/methanol 1:1 v/v), and the absorbance was read at 560 nm using an EPOCH microplate spectrophotometer (BioTek Instruments, Winooski, VT, USA) with the background absorbance at 670 nm subtracted. Control chemotherapeutics (carboplatin and shikonin) were used.\nData are presented as means ± SD. IC50 values for the MTT assays were obtained by nonlinear regression using the […] 8.4.3.0 program (Intuitive Software for Science, San Diego, CA, USA) from at least three independent experiments. A dose–response curve (inhibitor) vs response using the least-squares method was used to determine the IC50, SD, and R2 of the data. The selectivity index was calculated as SI = IC50 of the compound in normal oral fibroblast cells/IC50 of the same compound for each oral cancer cell line (SCC-4, SCC-9, and SCC-25) and averaged when indicated."}
{"molecule": "CC1(C)OC2=C(C(=O)c3ccccc3C2=O)C(Sc2ccccc2)C1Sc1ccccc1", "note": "(stereo not shown) [7a, 2,2-Dimethyl-3,4-bis(phenylthio)-3,4-dihydro-2H-benzo[g]chromene-5,10-dione]", "values": [{"measurement": "average SI", "value": 3.2}]}
